Results as given in patent publication US12479858B2, “Macrocyclic compounds as sting agonists and methods and uses thereof” (Lupin Limited, priority 2019, dated 2025).
≈ marks a conversion by molar mass, not a printed value. Structures can show the parent of a compound that is named as a salt.

How the values were obtained:
Human STING = molecular target: T1, Human STING (Homo sapiens, UniProt Q86WV6, G230A/H232R/R293Q/R71H); assay: Stimulation of human STING signaling in THP1 cell line (THP1-Blue ISG SEAP reporter); type: cell-based; details: THP1-Blue ISG cells, SEAP activity, 18-20 hours
T1 construct: using human THP1-Blue™ ISG SEAP based reporter cell line (Invivogen); host or cells: THP1-Blue ISG cells (human monocytic THP-1 derived SEAP reporter line)
T1 sequence (Q86WV6 whole entry R71H/G230A/H232R/R293Q): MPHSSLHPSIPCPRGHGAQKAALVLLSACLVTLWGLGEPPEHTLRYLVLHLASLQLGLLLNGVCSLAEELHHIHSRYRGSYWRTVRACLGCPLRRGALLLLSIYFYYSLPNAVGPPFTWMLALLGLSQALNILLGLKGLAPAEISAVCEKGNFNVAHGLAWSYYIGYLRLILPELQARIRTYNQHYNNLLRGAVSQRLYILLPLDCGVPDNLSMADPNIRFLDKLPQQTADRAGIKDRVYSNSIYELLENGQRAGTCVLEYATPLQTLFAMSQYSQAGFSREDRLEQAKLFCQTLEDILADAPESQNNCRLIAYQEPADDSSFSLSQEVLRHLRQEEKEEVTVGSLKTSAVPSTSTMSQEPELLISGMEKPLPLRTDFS
Method: Biological Assay—Stimulation of Human STING Signaling in THP1 Cell Line
Compounds were tested for their STING activation potential using human THP1-Blue™ ISG SEAP based reporter cell line (Invivogen). Briefly, THP1-Blue ISG cells (100,000 cells/well) in 96 well plate were treated with varying concentrations of test and reference compounds and incubated at 37° C. with 5% CO2 for 18-20 hours. The control untreated cells were also set up. Post incubation, the cell supernatant was tested for SEAP (Secreted Embryonic Alkaline Phosphatase) activity using the QuantiBlue™ substrate reagent (Invivogen). The formation of blue coloured product was quantified by measuring absorbance at wavelength of 620 nm using PheraStar/Tecan reader. The average of duplicate readouts for each data point was plotted in GraphPad prism 6 against the concentration of test or reference compound to calculate EC50 value. The fold of SEAP induction or increase in luminescence at different data points was estimated against the un-stimulated cell control set.

[1] = Apparent solubility/extended kinetic solubility by UHPLC; type: physicochemical; details: aqueous buffer, thermodynamic from solid, phosphate buffer, 37° C.
Method: Biological Assay—Determination of Apparent Solubility/Extended Kinetic Solubility by UHPLC
Test sample preparation: About 0.5 mg of the test sample was weighed and transferred in duplicate in 1 mL glass inserts of 96 well plates. 5 μL of DMSO and 1 ml of phosphate buffer were added. Allowed for equilibrium in an orbital shaker at 37° C. for 24 hrs. Later, allowed it cool to room temperature and centrifuged the 96 well plate (at 240×10 RPM for 20 min) and supernatant material was taken into collection plate, covered it with the heat resistant aluminum sheet or supernatant material was directly taken into HPLC sample vial.
Injected diluent as blank and linearity solutions in duplicate. Recorded the chromatograms and plotted the calibration curve, concentration (X-axis) versus Area (y-axis). The correlation coefficient for calibration curve should be not less than 0.95. If above criteria passes, then injected the test samples and recorded the chromatograms. In case saturated peaks are observed, then diluted the test sample with diluent as appropriate.
Calculated the slope and intercept of the calibration curve. From the standard curve, determined the solubility of the sample in μM (micromolar).

| SMILES | EC50 (Human STING) [nM] | solubility at 24 h [1] [µM] |
| --- | --- | --- |
| CCn1nc(C)cc1C(=O)Nc1nc2cc(C(N)=O)cc3c2n1C/C=C/Cn1c(NC(=O)c2cc(C)nn2CC)nc2cc(C(=O)NCCCc4nnn[nH]4)cc(c21)OCCCO3 [Compound 3, (E)-N-(3-(1H-tetrazol-5-yl)propyl)-1,15-bis(1-ethyl-3-methyl-1H-pyrazole-5-carboxamido)-8,9,16,19-tetrahydro-7H-6,10-dioxa-2,14,15a,19a-tetraazacyclopentadeca[3,2,1-cd:8,9,10-c′d′]diindene-4,12-dicarboxamide sodium salt] | 1 to 10 | 928 |
| CCn1nc(C)cc1C(=O)Nc1nc2cc(C(N)=O)cc3c2n1C/C=C/Cn1c(NC(=O)c2cc(C)nn2CC)nc2cc(C(=O)NCCc4nnn[nH]4)cc(c21)OCCCO3 [Compound 4, (E)-N-(2-(1H-tetrazol-5-yl)ethyl)-1,15-bis(1-ethyl-3-methyl-1H-pyrazole-5-carboxamido)-8,9,16,19-tetrahydro-7H-6,10-dioxa-2,14,15a,19a-tetraazacyclopentadeca[3,2,1-cd:8,9,10-c′d′]diindene-4,12-dicarboxamide] | 1 to 10 | 149 (≈ 126 µg/mL) |
| CCn1nc(C)cc1C(=O)Nc1nc2cc(C(N)=O)cc3c2n1C/C=C/Cn1c(NC(=O)c2cc(C)nn2CC)nc2cc(C(=O)NCCc4ccccc4C(=O)O)cc(c21)OCCCO3 [Compound 5, (E)-2-(2-(12-carbamoyl-1,15-bis(1-ethyl-3-methyl-1H-pyrazole-5-carboxamido)-8,9,16,19-tetrahydro-7H-6,10-dioxa-2,14,15a,19a-tetraazacyclopentadeca[3,2,1-cd:8,9,10-c′d′]diindene-4-carboxamido)ethyl)benzoic acid sodium salt] | 1 to 10 | 1120 |
| CCn1nc(C)cc1C(=O)Nc1nc2cc(C(N)=O)cc3c2n1C/C=C/Cn1c(NC(=O)c2cc(C)nn2CC)nc2cc(C(=O)NCc4ncccc4C(=O)O)cc(c21)OCCCO3 [Compound 9, (E)-2-((4-carbamoyl-1,15-bis(1-ethyl-3-methyl-1H-pyrazole-5-carboxamido)-8,9,16,19-tetrahydro-7H-6,10-dioxa-2,14,15a,19a-tetraazacyclopentadeca[3,2,1-cd:8,9,10-c′d′]diindene-12-carboxamido)methyl)nicotinic acid] | 11 to 100 | 100 (≈ 88.4 µg/mL) |
| CCn1nc(C)cc1C(=O)Nc1nc2cc(C(N)=O)cc3c2n1C/C=C/Cn1c(NC(=O)c2cc(C)nn2CC)nc2cc(C(=O)NCCCn4nn[nH]c4=O)cc(c21)OCCCO3 [Compound 10, (E)-1,15-bis(1-ethyl-3-methyl-1H-pyrazole-5-carboxamido)-N-(3-(5-oxo-4,5-dihydro-1H-tetrazol-1-yl)propyl)-8,9,16,19-tetrahydro-7H-6,10-dioxa-2,14,15a,19a-tetraazacyclopentadeca[3,2,1-cd:8,9,10-c′d′]diindene-4,12-dicarboxamide] | 11 to 100 | 631 (≈ 552 µg/mL) |
| CCn1nc(C)cc1C(=O)Nc1nc2cc(C(N)=O)cc3c2n1C/C=C/Cn1c(NC(=O)c2cc(C)nn2CC)nc2cc(C(=O)NCCCc4noc(=O)[nH]4)cc(c21)OCCCO3 [Compound 11, (E)-1,15-bis(1-ethyl-3-methyl-1H-pyrazole-5-carboxamido)-N-(3-(5-oxo-4,5-dihydro-1,2,4-oxadiazol-3-yl)propyl)-8,9,16,19-tetrahydro-7H-6,10-dioxa-2,14,15a,19a-tetraazacyclopentadeca[3,2,1-cd:8,9,10-c′d′]diindene-4,12-dicarboxamide] | 1 to 10 | 98 (≈ 85.7 µg/mL) |
| CCn1nc(C)cc1C(=O)Nc1nc2cc(C(N)=O)cc3c2n1C/C=C/Cn1c(NC(=O)c2cc(C)nn2CC)nc2cc(C(=O)NCCCc4nnn[nH]4)cc(c21)OC[C@H](N1C2CCC1COC2)CO3 [Compound 17, (8R,E)-N4-(3-(1H-tetrazol-5-yl)propyl)-8-(3-oxa-8-azabicyclo[3.2.1]octan-8-yl)-1,15-bis(1-ethyl-3-methyl-1H-pyrazole-5-carboxamido)-8,9,16,19-tetrahydro-7H-6,10-dioxa-2,14,15a,19a-tetraazacyclopentadeca[3,2,1-cd:8,9,10-c′d′]diindene-4,12-dicarboxamide sodium salt] | 11 to 100 | – |
| CCn1nc(C)cc1C(=O)Nc1nc2cc(C(N)=O)cc3c2n1C/C=C/Cn1c(NC(=O)c2cc(C)nn2CC)nc2cc(C(=O)NCCCn4cc(C(=O)O)cn4)cc(c21)OC[C@H](N1C2CCC1COC2)CO3 [Compound 19, 1-(3-((8R,E)-8-(3-oxa-8-azabicyclo[3.2.1]octan-8-yl)-12-carbamoyl-1,15-bis(1-ethyl-3-methyl-1H-pyrazole-5-carboxamido)-8,9,16,19-tetrahydro-7H-6,10-dioxa-2,14,15a,19a-tetraazacyclopentadeca[3,2,1-cd:8,9,10-c′d′]diindene-4-carboxamido)propyl)-1H-pyrazole-4-carboxylic acid sodium salt] | 11 to 100 | – |

Second part, the compound after the results:

| EC50 (Human STING) [nM] | solubility at 24 h [1] [µM] | SMILES |
| --- | --- | --- |
| 11 to 100 | – | CCn1nc(C)cc1C(=O)Nc1nc2cc(C(N)=O)cc3c2n1C/C=C/Cn1c(NC(=O)c2cc(C)nn2CC)nc2cc(C(=O)N[C@H]4CC[C@@H](C(=O)O)CC4)cc(c21)OCCCO3 [Compound 1, (1S,4S)-4-((E)-12-carbamoyl-1,15-bis(1-ethyl-3-methyl-1H-pyrazole-5-carboxamido)-8,9,16,19-tetrahydro-7H-6,10-dioxa-2,14,15a,19a-tetraazacyclopentadeca[3,2,1-cd:8,9,10-c′d′]diindene-4-carboxamido)cyclohexane-1-carboxylic acid] |
| 11 to 100 | – | CCn1nc(C)cc1C(=O)Nc1nc2cc(C(N)=O)cc3c2n1C/C=C/Cn1c(NC(=O)c2cc(C)nn2CC)nc2cc(C(=O)N[C@H]4CC[C@@H](c5nnn[nH]5)CC4)cc(c21)OCCCO3 [Compound 7, (E)-N-((1S,4S)-4-(1H-tetrazol-5-yl)cyclohexyl)-1,15-bis(1-ethyl-3-methyl-1H-pyrazole-5-carboxamido)-8,9,16,19-tetrahydro-7H-6,10-dioxa-2,14,15a,19a-tetraazacyclopentadeca[3,2,1-cd:8,9,10-c′d′]diindene-4,12-dicarboxamide] |
| 11 to 100 | – | CCn1nc(C)cc1C(=O)Nc1nc2cc(C(N)=O)cc3c2n1C/C=C/Cn1c(NC(=O)c2cc(C)nn2CC)nc2cc(C(=O)N[C@H]4CC[C@H](C(=O)O)CC4)cc(c21)OCC(N1CC2CCC(C1)O2)CO3 (stereo partly drawn) [Compound 20, (1R,4R)-4-((E)-8-(8-oxa-3-azabicyclo[3.2.1]octan-3-yl)-12-carbamoyl-1,15-bis(1-ethyl-3-methyl-1H-pyrazole-5-carboxamido)-8,9,16,19-tetrahydro-7H-6,10-dioxa-2,14,15a,19a-tetraazacyclopentadeca[3,2,1-cd:8,9,10-c′d′]diindene-4-carboxamido)cyclohexane-1-carboxylic acid] |
| 11 to 100 | – | CCn1nc(C)cc1C(=O)Nc1nc2cc(C(N)=O)cc3c2n1C/C=C/Cn1c(NC(=O)c2cc(C)nn2CC)nc2cc(C(=O)N[C@H]4CC[C@H](c5nnn[nH]5)CC4)cc(c21)OCC(N1CC2CCC(C1)O2)CO3 (stereo partly drawn) [Compound 22, (E)-N-((1R,4R)-4-(1H-tetrazol-5-yl)cyclohexyl)-8-(8-oxa-3-azabicyclo[3.2.1]octan-3-yl)-1,15-bis(1-ethyl-3-methyl-1H-pyrazole-5-carboxamido)-8,9,16,19-tetrahydro-7H-6,10-dioxa-2,14,15a,19a-tetraazacyclopentadeca [3,2,1-cd:8,9,10-c′d′]diindene-4,12-dicarboxamide] |
